Measured values reported in patent publication US11447534B2, “Peptide complex with immunodulatory and anti-inflammatory function” (NATIONAL INSTITUTE OF IMMUNOLOGY, priority 2018, dated 2022).
Entries after “also recorded” stand apart in the source; their conditions may differ.

What was measured:
RAW264.7 macrophages [1] = test: Lactate dehydrogenase (LDH) assay in macrophages; format: cell-based, murine; settings: macrophages, serum starved, 1 hour
Procedure: Effect of Abeta-Glu-OC (3 ng) mixture on macrophage integrity: To determine whether the mixture produced any toxicity lactate dehydrogenase (LDH) assay was performed. Briefly, the cells were incubated with the mixture under serum starved conditions for 1 hour followed by LDH assay. LDH was assayed using In vitro toxicology assay kit from Sigma-Aldrich, St. Louis, Mo., USA (cat. no.-TOX7) as per the manufacturer's directions. LDH assay substrate solution, LDH assay dye solution and 1×LDH assay cofactor were provided with the kit. […] To this LDH assay mixture was added and incubated at room temperature in the dark for 20-30 min. The reaction was terminated by the addition of 1/10 volume of 1N HCl. Absorption was taken 490 nm with the help of in a Tecan Microplate reader, Switzerland with Magellan™ software.

[2] = test system: carrageenan induced paw edema; test: Carrageenan induced paw inflammation in mice; format: in vivo, mouse; settings: Ibuprofen 100 mg/kg, 5th hour
Procedure: The effect of A-O complex was tested under in vivo conditions. Carrageenan, an inflammation inducing agent was injected into the hind foot pad of mouse to induce acute inflammation. The edema attains peak at around 3 hours post carrageenan challenge. This is a convenient model to assess the anti-inflammatory potency of test drugs to reduce or prevent the development of swelling. The protocol followed herein is as per Morris (2003) [Morris C J, 2003, Carrageenan induced paw edema in rat and mouse. In: Winyard P. G., Willoughby D. A. (eds) Inflammation Protocols. Methods in Molecular Biology, Vol 225. Humana Press. Pp 115-121].
Preparation of carrageenan: To prepare 0.5% of carrageenan solution, 50 mg of lamda-carrageenan ([…], Sigma Chemical Co., St. Louis, Mo., USA) was slowly added onto a small beaker containing 10 ml of normal saline. The powder was allowed to swell for some time and then slightly heated (not boiled) to dissolve the carrageenan. The solution was stirred during the heating. Once dissolved, the solution was cooled and aliquoted and stored at 4 degree Celsius.
Method: For experiment, the mice were acclimatized in cages under standard light and temperature settings with access to food and water ad libitum. Mice were acclimatized for 1 week in respective cages to minimize stress. At the day of experiment, mice were placed in a temporary animal restraint and 50 microlitre of carrageenan solution was administered by intraplantar injection to the right hind paw of each mouse. The left paw served as control and was administered 50 microlitre of normal saline.
To determine the efficacy of A-O complex different concentrations of complex viz. 5, 20 and 50 microgram per 100 g body weight of mice were administered intraperitoneally 1 hour before carrageenan challenge. Ibuprofen (100 mg/kg, Sigma Chemical Co., St. Louis, Mo., USA) served as positive control for the experiment. Paw size was measured by wrapping a piece of cotton thread round the paw of each […] and recording the length of the thread, the paw circumference, by use of a metric ruler. Paws were measured immediately before and at specified time points after carrageenan injection. Inhibitory activity was calculated at 1-5 h after carrageenan injection with the following formula: % Inhibition=[(Ct−C0)control−(Ct−C0)treated]/(Ct−C0)control×100, where Ct is paw size after carrageenan injection and C0 is paw size before carrageenan injection.

5×FAD Tg mice [3] = test: Morris water maze test in 5×FAD Tg mice; format: in vivo; settings: 300 ng per mouse subcutaneously for 2 months, vs 5×FAD Tg control
Procedure: (§1) Two month old 5×FAD Tg mice, both male as well as female were used for the study. For the purposes of this study wild type mice is referred to as Wt and 5×FAD mice is referred to as Tg. For experimentation, the mice were divided in below groups for treatment: 1. Wild type mice given vehicle (1×PBS or phosphate buffered saline; pH 7.4). 2. 5×FAD Transgenic mice given vehicle. 3. 5×FAD Transgenic mice given undercarboxylated osteocalcin (Glu-OC) subcutaneously at dose of 300 ng per mouse of weight ranging from 25-28 g for 2 months.
Glu-OC at a dose of 300 ng per mouse was administered subcutaneously for 2 months. To evaluate the potential of Glu-OC against development of Alzheimer's disease in 5×FAD Tg mice (a mouse model for Alzheimer's disease), the following methodologies used conducted: Morris water maze (MWM) test, immunohistochemistry, double immunostaining, ELISA and Congo Red staining. […] The training was given for the five consecutive days, with the video recording and the track of the animal was also recorded using the Any-maze animal behaviour software. Time taken to find the hidden platform is calculated and plotted.

5×FAD Tg mice [4] = test: Brain amyloid pathology by Congo Red staining and fibrillar Abeta42 immunostaining; format: in vivo, mouse; settings: for amyloid pathology / deposits in brain (Congo Red): 300 ng per mouse subcutaneously for 2 months
Procedure: as §1
(§2) For immunohistochemistry, sacrificed animals were perfused using 4% paraformaldehyde perfusion through the heart and the brains were harvested and submerged in the same fixative for not more than 24 hours. Brains were then washed in 1×PBS (pH 7.4) and placed in 30% sucrose-PBS solution where these initially floated owing to the weight of the sucrose. Upon saturation, the brains sank to the bottom of the sucrose solution. These were then removed and washed in PBS. Brain samples were quick frozen in liquid nitrogen and then embedded in polyfreeze tissue freezing medium in a plastic mould inside a cryostat where in temperature was −20° C. The samples were then stored in −80° C. until sectioning. Sections of 15-20 micrometre was cut in a cryostat and laid over high adsorbent microslides. For unmasking antigens, slides were heated at 55° C. for 10 min followed by hydration in PBS for 5 min and then permeabilization using 0.1% Triton X-100 in PBS containing 1% BSA and 1% normal goat serum (IHC buffer). For immunostaining, brain sections were incubated in primary antibodies (fibrillar Amyloid beta antibody, catalogue number MABN638 was from Millipore-Merk; osteocalcin antibody-catalogue number sc365797 was from Santa Cruz Biotechnology; Abeta1-42 antibody D923A #14974 was from Cell Signaling Technology) diluted in IHC buffer in a humidified chamber at room temperature overnight. For double immunostaining, specific antibodies against Abets42 and osteocalcin were incubated together with brain sections. […]

5×FAD Tg mice [5] = test: ELISA of soluble and insoluble Abeta42 in brain; format: in vivo, mouse; settings: vs 5×FAD Tg control
Procedure: as §1
as §2, with “sections. After rinsing with PBS three times for 5 min each, sections were incubated with the appropriate secondary antibody conjugated with AlexaFluor 594 or 488 (Molecular Probes, Invitrogen) for 2 h at room temperature. After rinsing with PBS, the coverslips were mounted with ProLong anti-fade mounting medium containing 4′,6-diamidino-2-phenylindole (DAPI) and imaged. Congo Red staining was done using staining kit from Abcam (ab150663) according to manufacturer's instructions. ELISA or enzyme linked immunosorbent assay was conducted on soluble and insoluble fractions prepared from brain samples. (a.) Preparation of soluble or DEA fraction or non-plaque associated Abeta.” for “sections.”

Abeta42 = biological target: T1, Abeta42 (Homo sapiens, UniProt P05067); test: Abeta42 fibrillization in situ (TEM, Thioflavin T binding assay); format: biochemical
T1 construct: of Abeta 1-42 peptide; Molecular weight = 4514.1; purchased r-peptide
T1 sequence (P05067 672-713): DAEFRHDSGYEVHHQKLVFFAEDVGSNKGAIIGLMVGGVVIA
Procedure: For this study, different concentrations of Glu-OC viz. […] After keeping the samples for 5 minutes, the excess was washed off with ultrapure water and surplus sample and water were wicked away using absorbent paper. The samples were negatively stained using 1% uranyl acetate stain, dried and analyzed in a transmission electron microscope CM10 Philips operated at 80 kV. […] ThT assay measures the changes in fluorescence intensity of ThT upon binding to amyloid fibrils. […] The resulting ThT fluorescence intensities of samples were measured at an emission wavelength of 480 nm and excitation wavelength of 440 nm and 5 nm slit width using a Jobin Vyon Horiba Fluoromax-4 spectrofluorimeter. The inner filter effect was taken into account using the Equation: Fc=F×anti log[(Aex+Aem)/2] where Fc is the corrected flourescence and F is apparent fluorescence, Aex and Aem are the absorbances of the samples at excitation and emission wavelengths respectively.

RAW264.7 macrophages [6] = test: qPCR of Cd74, Cd36 in serum starved macrophages; format: cell-based, murine; settings: unstimulated RAW264.7 macrophages, with respect to basal

`OO` [H2O2, hydrogen peroxide] was tested, and the “LDH in cell culture supernatants (LDH release)” value (RAW264.7 macrophages [1]) was “induces LDH release” and the “intracellular LDH” value (RAW264.7 macrophages [1]; vs control) was “rise in intracellular LDH”.
With `CC(C)Cc1ccc(C(C)C(=O)O)cc1` (stereo not drawn) [Positive control, Ibuprofen, reference compound] the edema inhibition [2] was 78%.
For undercarboxylated osteocalcin [Glu-OC], the “escape latency (Morris water maze)” value (5×FAD Tg mice [3]) was “lower escape latency; also recorded: reduced escape latency”, the “amyloid pathology / deposits in brain (Congo Red)” value (5×FAD Tg mice [4]) was “significant reduction in amyloid pathology” and the “amyloid pathology / deposits in brain (Congo Red)” value (5×FAD Tg mice [4]; listed as Gla-OC) was “lesser amyloid deposits”. The “fibrillar Abeta42 immunostaining of brain” value (5×FAD Tg mice [4]; fibrillar specific Abeta42 antibody) was “fewer yet larger Abeta42+ fibrillar amyloid deposits; also recorded: positive for intense fibrillar Abeta42 structures”, the “insoluble (plaque associated) Abeta42 level in brain” value (5×FAD Tg mice [5]) was “reduced” and the “soluble Abeta42 level in brain” value (5×FAD Tg mice [5]) was “increased”. The “insoluble (plaque associated) Abeta42 level in brain” value (5×FAD Tg mice [5]; listed as Gla-OC) was “significantly reduced”, the “soluble Abeta42 level in brain” value (5×FAD Tg mice [5]; listed as Gla-OC) was “significantly increased” and the “Abeta42 fibrillization (TEM)” value (Abeta42; Abeta42 100 micromolar with 3 ng of osteocalcin) was “Mature fibrils”. For the same molecule, the “Abeta42 fibrillization (TEM)” value (Abeta42; Abeta42 100 micromolar, Glu-OC 3-10 ng or none, 1×PBS pH 7.4, 37° C., 8 hours) was “demonstrated fibrillization”, the “increase in mRNA level of Cd36” value (RAW264.7 macrophages [6]) was “do not elicit induction” and the “increase in mRNA level of Cd74 (MHC-II)” value (RAW264.7 macrophages [6]) was “do not elicit induction”.
